Our source for the Efficacy values is ChEMBL document CHEMBL1208782, “Synthesis and pharmacological validation of a novel series of non-steroidal FXR agonists” (Bioorg Med Chem Lett, 2010).

What all share (type): functional, cell-based
Test [1] deals with T1, Estrogen receptor (Homo sapiens) (UniProt P03372).
T1 sequence (whole entry): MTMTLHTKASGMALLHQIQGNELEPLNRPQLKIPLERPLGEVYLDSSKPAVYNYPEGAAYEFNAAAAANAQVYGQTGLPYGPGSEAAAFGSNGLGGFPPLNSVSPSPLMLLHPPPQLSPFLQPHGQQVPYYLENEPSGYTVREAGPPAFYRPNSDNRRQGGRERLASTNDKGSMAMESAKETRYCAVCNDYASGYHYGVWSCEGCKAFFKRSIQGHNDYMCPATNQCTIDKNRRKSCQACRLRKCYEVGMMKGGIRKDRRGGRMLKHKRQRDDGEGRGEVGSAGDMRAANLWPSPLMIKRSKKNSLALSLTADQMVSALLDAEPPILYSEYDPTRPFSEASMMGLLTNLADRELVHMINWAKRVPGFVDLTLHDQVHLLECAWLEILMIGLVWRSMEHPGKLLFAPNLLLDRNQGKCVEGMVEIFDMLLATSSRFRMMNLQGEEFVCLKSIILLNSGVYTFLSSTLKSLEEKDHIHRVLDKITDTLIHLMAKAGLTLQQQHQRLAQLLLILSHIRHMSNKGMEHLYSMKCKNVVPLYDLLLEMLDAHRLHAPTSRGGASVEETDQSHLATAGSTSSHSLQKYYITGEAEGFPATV
Kind of test: Agonist activity at ERalpha-LBD expressed in HEK293 cells assessed as Gal4-DBD interaction by cellular mammalian one hybrid assay relative to 17-beta-estradiol.

Test [2] has as its target T2, Glucocorticoid receptor (Homo sapiens) (UniProt P04150).
T2 sequence (whole entry): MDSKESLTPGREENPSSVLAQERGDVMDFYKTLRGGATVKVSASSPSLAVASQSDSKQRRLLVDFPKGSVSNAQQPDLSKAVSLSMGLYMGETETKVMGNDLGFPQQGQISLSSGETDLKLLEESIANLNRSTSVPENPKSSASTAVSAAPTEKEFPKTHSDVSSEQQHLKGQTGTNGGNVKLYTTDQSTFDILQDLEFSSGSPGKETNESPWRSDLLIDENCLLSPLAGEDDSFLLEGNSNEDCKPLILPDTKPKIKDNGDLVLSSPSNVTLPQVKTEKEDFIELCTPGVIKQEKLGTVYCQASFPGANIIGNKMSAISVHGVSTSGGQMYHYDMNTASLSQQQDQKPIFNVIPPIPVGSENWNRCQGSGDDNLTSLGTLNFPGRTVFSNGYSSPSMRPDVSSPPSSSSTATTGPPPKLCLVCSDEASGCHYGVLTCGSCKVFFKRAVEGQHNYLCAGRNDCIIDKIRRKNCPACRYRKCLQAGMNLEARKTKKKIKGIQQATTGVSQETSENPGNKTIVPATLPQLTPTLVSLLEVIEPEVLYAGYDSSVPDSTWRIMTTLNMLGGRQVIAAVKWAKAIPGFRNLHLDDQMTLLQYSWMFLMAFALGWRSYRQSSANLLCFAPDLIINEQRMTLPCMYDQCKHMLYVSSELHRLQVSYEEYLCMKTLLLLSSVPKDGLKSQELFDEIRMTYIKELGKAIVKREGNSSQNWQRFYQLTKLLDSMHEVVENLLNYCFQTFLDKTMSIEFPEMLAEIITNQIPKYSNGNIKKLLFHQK
Briefly: Agonist activity at GR-LBD expressed in HEK293 cells assessed as Gal4-DBD interaction by cellular mammalian one hybrid assay relative to glucocorticoid.

Test [3] has as its target T3, Retinoic acid receptor beta (Homo sapiens) (UniProt P10826).
T3 sequence (whole entry): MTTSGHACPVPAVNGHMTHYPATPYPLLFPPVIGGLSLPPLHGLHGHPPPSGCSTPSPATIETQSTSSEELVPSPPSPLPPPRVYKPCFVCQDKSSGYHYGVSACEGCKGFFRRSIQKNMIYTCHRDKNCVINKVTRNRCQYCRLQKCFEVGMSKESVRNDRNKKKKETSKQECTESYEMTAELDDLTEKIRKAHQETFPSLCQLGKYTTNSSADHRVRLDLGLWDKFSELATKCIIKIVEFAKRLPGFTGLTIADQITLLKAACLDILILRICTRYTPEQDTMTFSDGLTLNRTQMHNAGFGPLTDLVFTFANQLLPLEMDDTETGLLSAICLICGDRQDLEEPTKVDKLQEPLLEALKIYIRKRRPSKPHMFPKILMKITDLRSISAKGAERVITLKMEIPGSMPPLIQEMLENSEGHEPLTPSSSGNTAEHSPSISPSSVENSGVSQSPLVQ
Kind of test: Agonist activity at RARbeta-LBD expressed in HEK293 cells assessed as Gal4-DBD interaction by cellular mammalian one hybrid assay relative to retinoic acid.

Test [4] concerns the target T4, Vitamin D3 receptor (Homo sapiens) (UniProt P11473).
T4 sequence (whole entry): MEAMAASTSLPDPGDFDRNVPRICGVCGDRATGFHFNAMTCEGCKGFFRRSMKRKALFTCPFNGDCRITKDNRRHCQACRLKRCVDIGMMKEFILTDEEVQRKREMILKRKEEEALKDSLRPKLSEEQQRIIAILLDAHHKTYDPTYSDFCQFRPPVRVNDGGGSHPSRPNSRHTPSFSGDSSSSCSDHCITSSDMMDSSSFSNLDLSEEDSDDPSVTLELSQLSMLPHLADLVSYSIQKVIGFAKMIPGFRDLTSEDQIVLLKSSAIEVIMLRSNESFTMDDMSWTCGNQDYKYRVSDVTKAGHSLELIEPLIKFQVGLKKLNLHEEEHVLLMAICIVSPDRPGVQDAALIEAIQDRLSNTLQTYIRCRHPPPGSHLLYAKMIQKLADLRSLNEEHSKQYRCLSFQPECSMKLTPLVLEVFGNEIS
Kind of test: Agonist activity at VDR-LBD expressed in HEK293 cells assessed as Gal4-DBD interaction by cellular mammalian one hybrid assay relative to vitamin D.

In the case of `CN(Cc1ccc(C(=O)O)cc1)c1ccc(OCc2c(-c3c(Cl)cccc3Cl)noc2C2CC2)nc1C(F)(F)F`, the Efficacy in test [1], in test [2], in test [3] and in test [4] was 0% in each case.
For `CN(Cc1cccc(C(=O)O)c1)c1ccc(OCc2c(-c3c(Cl)cccc3Cl)noc2C2CC2)nc1C(F)(F)F`, the Efficacy in test [1] worked out at 24%; in test [2], 0%; in test [3], 0%; in test [4], 0%.
As for `CC(C)c1onc(-c2c(Cl)cccc2Cl)c1COc1ccc(N(C)Cc2ccc(C(=O)O)cc2)c(C(F)(F)F)n1`, the Efficacy in test [1], in test [2], in test [3] and in test [4] was 0% throughout.
